The target in assay [1] is T1, Amine oxidase [flavin-containing] A (Homo sapiens, UniProt P21397).
T1 sequence (P21397 whole entry): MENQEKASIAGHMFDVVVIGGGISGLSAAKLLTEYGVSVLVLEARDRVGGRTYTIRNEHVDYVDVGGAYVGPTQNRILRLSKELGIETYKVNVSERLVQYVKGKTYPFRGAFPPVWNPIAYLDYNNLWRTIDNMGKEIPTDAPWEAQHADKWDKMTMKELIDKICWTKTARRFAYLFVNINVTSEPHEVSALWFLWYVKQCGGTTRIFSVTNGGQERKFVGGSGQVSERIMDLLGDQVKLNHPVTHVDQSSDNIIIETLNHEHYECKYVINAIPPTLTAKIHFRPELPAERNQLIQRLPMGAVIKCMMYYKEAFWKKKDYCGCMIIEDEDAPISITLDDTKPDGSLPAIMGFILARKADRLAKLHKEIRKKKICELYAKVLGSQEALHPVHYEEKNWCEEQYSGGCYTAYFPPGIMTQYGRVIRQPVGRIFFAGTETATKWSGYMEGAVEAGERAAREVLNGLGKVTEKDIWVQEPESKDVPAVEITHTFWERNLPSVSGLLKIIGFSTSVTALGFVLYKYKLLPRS
Put plainly: (§1) SSAO Activity Assay: Amine oxidase activity of recombinant hSSAO, hMAO-A, and hMAO-B isoforms are measured using the MAO-Glo assay kit (Promega, V1402). Ten nL test compounds (with DMSO as vehicle, 0.1% v/v for hSSAO, hMAO-A and hMAO-B) were added into assay plates by Echo, and pre-incubated with 5 μL of enzyme for 30 mins at room temperature before the addition of 5 μL of luminogenic substrate. The substrate concentration is 40 μM for human recombinant SSAO, 40 μM for human recombinant MAO-A, and 4 μM for human recombinant MAO-B. The hSSAO and hMAO-A assays were conducted in the MAO-A reaction buffer in the kit, and the MAO-B assay was conducted in the MAO-B reaction buffer. Oxidation of the substrate was conducted for 1 hr, before the addition of detecting reagent according the manufacture's protocol. The IC50 value of the tested compounds was calculated by fitting the dose response curve using a 4-parameter non-linear regression routine.

Assay [2] deals with T2, Amine oxidase [flavin-containing] B (Homo sapiens, UniProt P27338).
T2 sequence (P27338 whole entry): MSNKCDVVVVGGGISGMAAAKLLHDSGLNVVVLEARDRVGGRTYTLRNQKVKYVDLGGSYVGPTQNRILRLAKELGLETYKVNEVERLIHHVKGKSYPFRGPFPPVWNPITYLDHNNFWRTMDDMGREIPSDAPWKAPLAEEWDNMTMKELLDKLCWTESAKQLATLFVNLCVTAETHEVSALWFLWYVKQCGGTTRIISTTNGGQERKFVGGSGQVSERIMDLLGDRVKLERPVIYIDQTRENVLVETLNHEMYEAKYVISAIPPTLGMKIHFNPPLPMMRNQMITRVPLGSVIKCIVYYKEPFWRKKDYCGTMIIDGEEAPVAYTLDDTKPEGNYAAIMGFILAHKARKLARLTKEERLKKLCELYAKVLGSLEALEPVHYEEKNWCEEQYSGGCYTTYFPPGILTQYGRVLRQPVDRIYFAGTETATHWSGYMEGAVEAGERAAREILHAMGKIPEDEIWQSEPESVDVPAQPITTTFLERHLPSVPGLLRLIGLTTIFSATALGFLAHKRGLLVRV
Described as §1.

Here are results for 25 compounds from ChEMBL document CHEMBL5729376, “SSAO inhibitors and use thereof” (2022).

The structures appear in SMILES notation. Some results are limits rather than exact numbers.

Take `NC/C(=C\F)COc1ccc(S(=O)(=O)CC2CCCN(C(=O)C3CCCC3)C2)cc1` (stereo not given): the IC50 in assay [1] is 10 to 30 µM; in assay [2], > 30 µM.

`CC(C)(CN1CCOCC1)CS(=O)(=O)c1ccc(OC/C(=C/F)CN)cc1`: the IC50 in assay [1] and in assay [2] was > 30 µM in each case.

On to `COCC(COC)CS(=O)(=O)c1ccc(OC/C(=C/F)CN)cc1`, for which the concentration for half-maximal inhibition (IC50) in assay [1] was > 30 µM; in assay [2], < 10 µM.

For the compound `C[C@@H](CN1CCCCC1=O)CS(=O)(=O)c1ccc(OC/C(=C/F)CN)cc1`, the half-maximal inhibitory concentration (IC50) in assay [1] and in assay [2] was > 30 µM throughout.

For `CO[C@H]1CC[C@@H](CS(=O)(=O)c2ccc(OC/C(=C/F)CN)cc2)CC1`, the 50% inhibitory concentration (IC50) in assay [1] and in assay [2] was 10 to 30 µM throughout.

`C[C@@H](CN1CCCC1=O)CS(=O)(=O)c1ccc(OC/C(=C/F)CN)cc1`: the IC50 in assay [1] and in assay [2] was > 30 µM throughout.

Turning to `NC/C(=C\F)COc1ccc(S(=O)(=O)CC2CCN(C(=O)c3ccc(F)cc3)CC2)cc1`, the IC50 in assay [1] and in assay [2] was < 10 µM each time.

In the case of `NC/C(=C\F)COc1ccc(S(=O)(=O)COC2CCOCC2)cc1`, the IC50 in assay [1] is > 30 µM; in assay [2], < 10 µM.

On to `CCN(CC(C)CS(=O)(=O)c1ccc(OC/C(=C/F)CN)cc1)C(=O)C(C)C` (stereo not given), for which the concentration for half-maximal inhibition (IC50) in assay [1] and in assay [2] was > 30 µM throughout.

`CC(C)(C)C(=O)N1CCC(CS(=O)(=O)c2ccc(OC/C(=C/F)CN)cc2)CC1`: the IC50 in assay [1] and in assay [2] was > 30 µM each time.

`CC(C)n1ccc(CS(=O)(=O)c2ccc(OC/C(=C/F)CN)cc2)cc1=O`: the IC50 in assay [1] is > 30 µM; in assay [2], < 10 µM.

Take `CC(C)n1nc(CS(=O)(=O)c2ccc(OC/C(=C/F)CN)cc2)ccc1=O`: the figures for the IC50 in assay [1] and in assay [2] were > 30 µM and < 10 µM, respectively.

On to `CC1(C)COC(CS(=O)(=O)c2ccc(OC/C(=C/F)CN)cc2)CO1` (stereo not given), for which the results for the IC50 in assay [1] and in assay [2] were > 30 µM and < 10 µM, respectively.

Turning to `C[C@H](CN1CCOCC1)CS(=O)(=O)c1ccc(OC/C(=C/F)CN)cc1`, the half-maximal inhibitory concentration (IC50) in assay [1] and in assay [2] was > 30 µM throughout.

With `C[C@@H](CN1CCC2(CCCC2)C1=O)CS(=O)(=O)c1ccc(OC/C(=C/F)CN)cc1`, the half-inhibitory concentration (IC50) in assay [1] is > 30 µM; in assay [2], < 10 µM.

For the compound `CC1(COCS(=O)(=O)c2ccc(OC/C(=C/F)CN)cc2)CCOCC1`, the IC50 in assay [1] was > 30 µM; in assay [2], < 10 µM.

As for `NC/C(=C\F)COc1ccc(S(=O)(=O)CC2CCOCC2)c(F)c1`, the IC50 in assay [1] and in assay [2] was < 10 µM throughout.

Consider `CC(C)C(=O)N1CC(CS(=O)(=O)c2ccc(OC/C(=C/F)CN)cc2)C1`, for which the values for the IC50 in assay [1] and in assay [2] were > 30 µM and < 10 µM, respectively.

With `COCCOCS(=O)(=O)c1ccc(OC/C(=C/F)CN)cc1`, the half-inhibitory concentration (IC50) in assay [1] and in assay [2] was > 30 µM in each case.

Regarding `NC/C(=C/F)COc1ccc(S(=O)(=O)CC23CCC(NC(=O)C4CC4)(CC2)CC3)cc1`, the IC50 in assay [1] was > 30 µM; in assay [2], < 10 µM.

In the case of `C[C@@H](CN1CCOCC1)CS(=O)(=O)c1ccc(OC/C(=C/F)CN)cc1`, the IC50 in assay [1] and in assay [2] was > 30 µM throughout.

For `NC/C(=C\F)COc1ccc(S(=O)(=O)CC23CCC(NC(=O)CC(F)(F)F)(CC2)CC3)cc1`, the IC50 in assay [1] and in assay [2] was > 30 µM in each case.

For `NC/C(=C\F)COc1ccc(S(=O)(=O)CC2CCOCC2)cc1`, the IC50 in assay [1] was > 30 µM; in assay [2] it was < 10 µM.

For the compound `NC/C(=C\F)COc1ccc(S(=O)(=O)CN2CCCC2=O)cc1`, the half-inhibitory concentration (IC50) in assay [1] and in assay [2] was > 30 µM throughout.

On to `NC/C(=C\F)COc1ccc(S(=O)(=O)CC23CC(C(=O)NC4CCC4)(C2)C3)cc1`, for which the IC50 in assay [1] was > 30 µM; in assay [2], < 10 µM.

By IC50 is commonly meant the midpoint of a concentration-inhibition curve.
